Our source for the IC50 and inhibition values is patent US7135466B2 (Kirin Beer Kabushiki Kaisha, priority 1999, dated 2006).

Experiment [1] has as its target T1, c-kit (Homo sapiens, UniProt P10721).
T1 construct: MO7e (human megakaryocytic leukemia cell line) which had been arrested for 20 hr; endogenous in cells; host or cells: MO7e human megakaryocytic leukemia cell line
The experiment in a line: Inhibitory activity against c-kit autophosphorylation (MO7e cells, h-SCF). In kind it is cell-based. The following applies: for IC50: h-SCF stimulation; for inhibition at 1 µM: Mo7e, figure in parentheses in −( ), at 1000 nM. The method in brief:
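First, human megakaryocytic leukemia MO7e cells arrested 20 hr receive compound for one hour. Second, SCF stimulation (50 ng/ml) runs 5 min, after which cells are solubilized. Third, tyrosine-phosphorylated c-kit in the lysate is quantified by sandwich ELISA with absorbance at 450 nm.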

Experiment [2] has as its target T2, PDGF-Ra (Homo sapiens, UniProt P16234).
T2 construct: host or cells: G-292 human osteosarcoma cells
The experiment in a line: Inhibitory activity against PDGF-Ra phosphorylation by PDGF-AA stimulation using G292. In kind it is cell-based. To be noted: > means inhibition at indicated concentration not more than 50%, < and << not less than 50%; read-out: PDGF (E) IC50. In short, it runs like this: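 In G-292 osteosarcoma cells kept overnight in 0.1% FBS, compound exposure (1 hr, 37 °C) preceded PDGF-AA stimulation at 50 ng/ml for 5 min; receptor phosphotyrosine was then detected by PY-20 capture ELISA.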

The mark [3] stands for this setting: MO7e cells, read-out: c-kit IC50.

The structures appear in SMILES notation. Where two headings read alike, the source gives them in different places. A value given as a limit tells only on which side of the number the result lay.

T2 sequence (P16234 24-1089): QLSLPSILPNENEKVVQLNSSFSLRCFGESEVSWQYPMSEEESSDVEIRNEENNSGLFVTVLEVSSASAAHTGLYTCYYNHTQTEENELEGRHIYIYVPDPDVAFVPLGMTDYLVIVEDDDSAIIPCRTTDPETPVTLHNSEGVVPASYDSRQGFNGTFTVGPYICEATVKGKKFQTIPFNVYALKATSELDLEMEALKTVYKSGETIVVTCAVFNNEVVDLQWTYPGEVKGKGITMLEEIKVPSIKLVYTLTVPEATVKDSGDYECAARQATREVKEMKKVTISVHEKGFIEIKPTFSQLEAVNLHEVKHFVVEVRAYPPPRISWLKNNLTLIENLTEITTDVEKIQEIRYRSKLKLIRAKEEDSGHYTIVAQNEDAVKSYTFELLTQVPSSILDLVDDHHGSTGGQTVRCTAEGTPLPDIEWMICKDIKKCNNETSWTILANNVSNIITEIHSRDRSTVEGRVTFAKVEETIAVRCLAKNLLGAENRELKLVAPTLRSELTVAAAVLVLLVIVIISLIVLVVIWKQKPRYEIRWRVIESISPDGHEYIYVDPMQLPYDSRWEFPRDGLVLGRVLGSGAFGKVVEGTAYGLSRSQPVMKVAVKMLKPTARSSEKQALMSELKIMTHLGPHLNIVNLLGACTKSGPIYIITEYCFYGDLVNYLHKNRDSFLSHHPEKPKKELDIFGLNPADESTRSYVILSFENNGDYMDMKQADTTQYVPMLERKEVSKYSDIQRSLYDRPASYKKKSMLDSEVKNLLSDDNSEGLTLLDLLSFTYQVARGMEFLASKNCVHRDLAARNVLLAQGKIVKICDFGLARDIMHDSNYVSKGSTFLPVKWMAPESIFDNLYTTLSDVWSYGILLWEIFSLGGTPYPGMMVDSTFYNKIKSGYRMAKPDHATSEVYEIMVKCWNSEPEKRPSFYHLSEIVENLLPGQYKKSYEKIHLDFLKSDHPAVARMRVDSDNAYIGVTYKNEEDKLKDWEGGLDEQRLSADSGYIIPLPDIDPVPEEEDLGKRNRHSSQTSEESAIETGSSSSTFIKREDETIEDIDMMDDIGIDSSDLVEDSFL
T1 sequence (P10721 26-976): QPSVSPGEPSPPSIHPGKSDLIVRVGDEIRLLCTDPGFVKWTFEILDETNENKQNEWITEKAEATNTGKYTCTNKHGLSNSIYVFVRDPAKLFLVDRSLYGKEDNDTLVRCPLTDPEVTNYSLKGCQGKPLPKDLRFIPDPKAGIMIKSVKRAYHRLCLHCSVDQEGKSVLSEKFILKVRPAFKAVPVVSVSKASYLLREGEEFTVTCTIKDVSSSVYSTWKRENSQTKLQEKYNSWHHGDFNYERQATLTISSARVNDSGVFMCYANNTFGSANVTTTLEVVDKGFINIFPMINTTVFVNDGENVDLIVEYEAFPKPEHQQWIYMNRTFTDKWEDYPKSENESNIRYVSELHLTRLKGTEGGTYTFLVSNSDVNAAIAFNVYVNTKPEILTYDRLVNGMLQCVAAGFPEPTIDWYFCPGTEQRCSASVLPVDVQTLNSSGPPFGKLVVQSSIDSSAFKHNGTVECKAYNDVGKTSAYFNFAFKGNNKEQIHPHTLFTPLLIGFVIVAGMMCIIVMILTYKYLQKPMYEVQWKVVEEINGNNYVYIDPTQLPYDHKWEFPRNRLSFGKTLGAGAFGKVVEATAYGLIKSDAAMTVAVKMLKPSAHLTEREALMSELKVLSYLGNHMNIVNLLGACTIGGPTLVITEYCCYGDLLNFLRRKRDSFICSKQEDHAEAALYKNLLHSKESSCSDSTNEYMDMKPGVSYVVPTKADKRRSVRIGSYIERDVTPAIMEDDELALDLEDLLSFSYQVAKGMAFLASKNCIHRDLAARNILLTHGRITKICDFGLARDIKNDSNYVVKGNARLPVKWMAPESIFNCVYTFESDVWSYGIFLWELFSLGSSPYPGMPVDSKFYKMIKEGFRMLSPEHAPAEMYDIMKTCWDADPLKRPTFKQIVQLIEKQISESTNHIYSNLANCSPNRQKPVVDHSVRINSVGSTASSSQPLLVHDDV

In general, IC50 refers to the concentration that inhibits the measured activity by half. For `COc1cc2nccc(Oc3ccc(NC(=S)NC(=O)c4cccc(C)c4C)cc3)c2cc1OC` [Example 1005, N-{4-[(6,7-Dimethoxy-4-quinolyl)oxy]phenyl}-N′-(2,3-dimethylbenzoyl)thiourea], the figures for the half-inhibitory concentration (IC50) in experiment [1] (setting [3]) and in experiment [2] were 674 nM and 28 nM, respectively.

As to `COc1cc2nccc(Oc3ccc(NC(=S)NC(=O)c4cc(Cl)cc(Cl)c4)cc3)c2cc1OC` [Example 1009, N-(3,5-Dichlorobenzoyl)-N′-{4-[(6,7-dimethoxy-4-quinolyl)oxy]phenyl}thiourea], the IC50 was 243 nM in experiment [1] (setting [3]) and 21 nM in experiment [2].

For the compound `COc1cc2nccc(Oc3ccc(NC(=S)NC(=O)c4cccc(C)c4C)cc3Cl)c2cc1OC` [Example 1018, N-{3-Chloro-4-[(6,7-dimethoxy-4-quinolyl)oxy]phenyl}-N′-(2,3-dimethylbenzoyl)thiourea], the half-inhibitory concentration (IC50) came out at 320 nM in experiment [1] (setting [3]) and 10 nM in experiment [2].

With `COc1cc2nccc(Oc3ccc(NC(=S)NC(=O)c4cc(C)cc(C)c4)cc3Cl)c2cc1OC` [Example 1019, N-{3-Chloro-4-[(6,7-dimethoxy-4-quinolyl)oxy]phenyl}-N′-(3,5-dimethylbenzoyl)thiourea], the IC50 in experiment [1] (setting [3]) was determined as 187 nM; in experiment [2], 22 nM.

As to `COc1cc2nccc(Oc3ccc(NC(=S)NC(=O)Cc4ccccc4)cc3)c2cc1OC` [Example 1022, N-{4-[(6,7-Dimethoxy-4-quinolyl)oxy]phenyl}-N′-(2-phenylacetyl)thiourea], the IC50 turned out to be 202 nM in experiment [1] (setting [3]) and 28 nM in experiment [2].

Consider `COc1cc2nccc(Oc3ccc(NC(=S)NC(=O)CC4CCCCC4)cc3)c2cc1OC` [Example 1023, N-(2-Cyclohexylacetyl)-N′-{4-[(6,7-dimethoxy-4-quinolyl)oxy]phenyl}thiourea], for which the half-maximal inhibitory concentration (IC50) came to 116 nM in experiment [1] (setting [3]) and 22 nM in experiment [2].

Regarding `COc1cc2nccc(Oc3ccc(NC(=S)NC(=O)Cc4ccccc4)c(F)c3)c2cc1OC` [Example 1024, N-{4-[(6,7-Dimethoxy-4-quinolyl)oxy]-2-fluorophenyl}-N′-(2-phenylacetyl)thiourea], the IC50 in experiment [1] (setting [3]) was found to be 141 nM; in experiment [2], 11 nM.

With `COc1ccccc1CCC(=O)NC(=S)Nc1ccc(Oc2ccnc3cc(OC)c(OC)cc23)cc1` [Example 1025, N-{4-[(6,7-Dimethoxy-4-quinolyl)oxy]phenyl}-N′-[3-(2-methoxyphenyl)propanoyl]thiourea], the IC50 in experiment [1] (setting [3]) stood at 194 nM; in experiment [2], 15 nM.

`COc1cc2nccc(Oc3ccc(NC(=S)NC(=O)CCc4ccccc4)cc3F)c2cc1OC` [Example 1028, N-{4-[(6,7-Dimethoxy-4-quinolyl)oxy]-3-fluorophenyl}-N′-(3-phenylpropanoyl)thiourea]: the 50% inhibitory concentration (IC50) was 545 nM in experiment [1] (setting [3]) and below 10 nM in experiment [2].

In the case of `COc1cc2nccc(Oc3ccc(NC(=S)NC(=O)CCC4CCCC4)cc3F)c2cc1OC` [Example 1029, N-(3-Cyclopentylpropanoyl)-N′-{4-[(6,7-dimethoxy-4-quinolyl)oxy]-3-fluorophenyl}thiourea], the half-maximal inhibitory concentration (IC50) in experiment [1] (setting [3]) was found to be 126 nM; in experiment [2] it was 5 nM.

As for `COc1cc2nccc(Oc3ccc(NC(=S)NC(=O)CCC4CCCC4)cc3Cl)c2cc1OC` [Example 1030, N-{3-Chloro-4-[(6,7-dimethoxy-4-quinolyl)oxy]phenyl}-N′-(3-cyclopentylpropanoyl)thiourea], the 50% inhibitory concentration (IC50) was 337 nM in experiment [1] (setting [3]) and 14 nM in experiment [2].

As to `COc1cc2nccc(Oc3ccc(NC(=S)NC(=O)COCc4ccccc4)c(F)c3)c2cc1OC` [Example 1031, N-[2-(Benzyloxy)acetyl]-N′-{4-[(6,7-dimethoxy-4-quinolyl)oxy]-2-fluorophenyl}thiourea], the IC50 is 254 nM in experiment [1] (setting [3]) and 10 nM in experiment [2].

As to `COc1cc2nccc(Oc3ccc(NC(=S)NC(=O)COCc4ccccc4)cc3F)c2cc1OC` [Example 1032, N-[2-(Benzyloxy)acetyl]-N′-{4-[(6,7-dimethoxy-4-quinolyl)oxy]-3-fluorophenyl}thiourea], the figures for the IC50 in experiment [1] (setting [3]) and in experiment [2] were 321 nM and below 10 nM, respectively.

For the compound `COc1cc2nccc(Oc3ccc(NC(=S)NC(=O)c4ccc(C)s4)cc3F)c2cc1OC` [Example 1040, N-{4-[(6,7-Dimethoxy-4-quinolyl)oxy]-3-fluorophenyl}-N′-[(5-methyl-2-thienyl)carbonyl]thiourea], the half-maximal inhibitory concentration (IC50) is 414 nM in experiment [1] (setting [3]) and below 10 nM in experiment [2].

On to `CCN(CC)C(=O)NC(=S)Nc1ccc(Oc2ccnc3cc(OC)c(OC)cc23)cc1` [Example 1041, N-{4-[(6,7-Dimethoxy-4-quinolyl)oxy]phenyl}-{[(diethylamino)carbonyl]amino}methanethioamide], for which the IC50 in experiment [1] (setting [3]) came out at 98 nM; in experiment [2] it was 12 nM.

As for `COc1cc2nccc(Oc3ccc(NC(=S)NC(=O)N(CCCl)CCCl)cc3)c2cc1OC` [Example 1042, N-{4-[(6,7-Dimethoxy-4-quinolyl)oxy]phenyl}-[{[di(2-chloroethyl)amino]carbonyl}amino]methanethioamide], the IC50 in experiment [1] (c-kit IC50, MO7e cells) is 107 nM; in experiment [2], 39 nM.

Regarding `COc1cc2nccc(Oc3ccc(NC(=S)NC(=O)N(C(C)C)C(C)C)cc3)c2cc1OC` [Example 1043, N-{4-[(6,7-Dimethoxy-4-quinolyl)oxy]phenyl}-{[(diisopropylamino)carbonyl]amino}methanethioamide], the half-inhibitory concentration (IC50) in experiment [1] (setting [3]) came out at 449 nM; in experiment [2], 27 nM.

Take `COc1cc2nccc(Oc3ccc(NC(=S)NC(=O)N4CCCC4)cc3)c2cc1OC` [Example 1044, N-{4-[(6,7-Dimethoxy-4-quinolyl)oxy]phenyl}-N′-tetrahydro-1H-1-pyrrolylcarbonylthiourea]: the IC50 is 136 nM in experiment [1] (setting [3]) and below 10 nM in experiment [2].

With `COc1cc2nccc(Oc3ccc(NC(=S)NC(=O)N4CCOCC4)cc3)c2cc1OC` [Example 1045, N-{4-[(6,7-Dimethoxy-4-quinolyl)oxy]phenyl}-N′-morpholinocarbonylthiourea], the IC50 was 193 nM in experiment [1] (setting [3]) and 17 nM in experiment [2].

For the compound `COc1cc2nccc(Oc3ccc(NC(=S)NC(=O)N(C)c4ccccc4)cc3)c2cc1OC` [Example 1046, N-{4-[(6,7-Dimethoxy-4-quinolyl)oxy]phenyl}-{[(methylanilino)carbonyl]amino}methanethioamide], the results for the half-inhibitory concentration (IC50) in experiment [1] (setting [3]) and in experiment [2] were 202 nM and 38 nM, respectively.

Take `CCN(CC)C(=O)NC(=S)Nc1ccc(Oc2ccnc3cc(OC)c(OC)cc23)c(Cl)c1` [Example 1048, N-{3-Chloro-4-[(6,7-dimethoxy-4-quinolyl)oxy]phenyl}-{[(diethylamino)carbonyl]amino}methanethioamide]: the 50% inhibitory concentration (IC50) is 250 nM in experiment [1] (setting [3]) and below 10 nM in experiment [2].

Turning to `COc1cc2nccc(Oc3ccc(NC(=S)NC(=O)N(C(C)C)C(C)C)cc3Cl)c2cc1OC` [Example 1050, N-{3-Chloro-4-[(6,7-dimethoxy-4-quinolyl)oxy]phenyl}-{[(diisopropylamino)carbonyl]amino}methanethioamide], the concentration for half-maximal inhibition (IC50) in experiment [1] (setting [3]) turned out to be 579 nM; in experiment [2] it was 23 nM.

On to `COc1cc2nccc(Oc3ccc(NC(=S)NC(=O)N4CCCC4)cc3Cl)c2cc1OC` [Example 1051, N-{3-Chloro-4-[(6,7-dimethoxy-4-quinolyl)oxy]phenyl}-N′-tetrahydro-1H-1-pyrrolylcarbonylthiourea], for which the IC50 in experiment [1] (setting [3]) was determined as 418 nM; in experiment [2] it was 14 nM.

With `COc1cc2nccc(Oc3ccc(NC(=S)NC(=O)N4CCOCC4)cc3Cl)c2cc1OC` [Example 1052, N-{3-Chloro-4-[(6,7-dimethoxy-4-quinolyl)oxy]phenyl}-N′-morpholinocarbonylthiourea], the concentration for half-maximal inhibition (IC50) in experiment [1] (setting [3]) came to 408 nM; in experiment [2], 21 nM.

Broadly, the inhibition is the drop in the measured response relative to a control, in per cent. In the case of `COc1cc2nccc(Oc3ccc(NC(=S)NC(=O)N4c5ccccc5CCc5ccccc54)cc3Cl)c2cc1OC` [Example 1054, N-{3-Chloro-4-[(6,7-dimethoxy-4-quinolyl)oxy]phenyl}-N′-[10,11-dihydro-5H-dibenzo(b,f)azepin-5-ylcarbonyl]thiourea], in experiment [1], the inhibition at 1 µM is 19%. Besides, in experiment [2], the 50% inhibitory concentration (IC50) is 27 nM.

Regarding `COc1cc2nccc(Oc3ccc(NC(=S)NC(=O)C4CC4c4ccccc4)cc3)c2cc1OC` (stereo not shown) [Example 1055, N-{4-[(6,7-Dimethoxy-4-quinolyl)oxy]phenyl}-N′-[(2-phenylcyclopropyl)carbonyl]thiourea], the results for the IC50 in experiment [1] (setting [3]) and in experiment [2] were 312 nM and 16 nM, respectively.

Take `COc1cc2nccc(Oc3ccc(NC(=S)NC(=O)C4CC4)cc3Cl)c2cc1OC` [Example 1058, N-{3-Chloro-4-[(6,7-dimethoxy-4-quinolyl)oxy]phenyl}-N′-cyclopropylcarbonylthiourea]: the inhibition at 1 µM in experiment [1] was determined as 21%. The IC50 in experiment [2] was found to be 8 nM.

With `COc1cc2ncnc(Oc3ccc(NC(=S)NC(=O)C4CC4c4ccccc4)cc3)c2cc1OC` (stereo not shown) [Example 1060, N-{4-[(6,7-Dimethoxy-4-quinazolinyl)oxy]phenyl}-N′-[(2-phenylcyclopropyl)carbonyl]thiourea], the inhibition at 1 µM in experiment [1] came to 30%. Besides, in experiment [2], the IC50 came out at 39 nM.

Consider `CCOCCC(=O)NC(=S)Nc1ccc(Oc2ccnc3cc(OC)c(OC)cc23)cc1` [Example 1065, N-{4-[(6,7-Dimethoxy-4-quinolyl)oxy]phenyl}-N′-(3-ethoxypropanoyl)thiourea], for which the concentration for half-maximal inhibition (IC50) came to 566 nM in experiment [1] (setting [3]) and 19 nM in experiment [2].
